# Test results: PMC10618743 (Cancer Discovery, 2023)
# Legend:
# [1] = system: glucose oxidation in tumor and skeletal muscle; experiment: [U-13C]-glucose metabolic profiling in CAL-33 tumor-bearing mice; type: in vivo, mouse; details: alpelisib 50 mg/kg; 30 minutes after [U-13C]-glucose
# [2] = system: PI3Kα-mutant, ER+HER2- metastatic breast cancer; details: alpelisib in combination with fulvestrant, median follow-up 20 months; cited from earlier work
# [3] = system: T47D ER+HER2- breast cancer xenograft; experiment: T47D xenograft efficacy study; type: in vivo, mouse; details: Alpelisib 50 mg/kg QD, Day 20
# [4] = cited from earlier work
# [5] = system: pAKT (S473) in CAL-33 tumors; experiment: CAL-33 tumor PK/PD, pAKT/AKT Western blot; type: in vivo, mouse; details: 50 mg/kg q.d.
# [6] = Insulin tolerance test (ITT) and oral glucose tolerance test (OGTT); type: in vivo, mouse; details: 50 mg/kg dose levels
# [7] = Tolerability measures in CDX studies: body weight and insulin 1 hour after dose; details: for Δ Insulin: Alpelisib 50 mg/kg QD, one-hour post dose
# [8] = system: insulin-mediated glucose uptake in primary human subcutaneous adipocytes; experiment: Human adipocyte 3H-2-deoxyglucose uptake; type: cell-based
# Description: Primary human subcutaneous adipocytes were treated with a test compound or vehicle for 1 hour followed by the addition of 10 nmol/L insulin and ^3H-2-deoxyglucose (Zen Bio Durham, assay #CA-25, Lot #SL0071). Cytochalasin B treatment controlled for nonspecific glucose uptake. Corrected counts per minute were determined using a scintillation counter.
# [9] = alpelisib with ribociclib and fulvestrant, in the clinic; cited from earlier work
# [10] = system: HCC1954 breast cancer xenograft; experiment: HCC1954 xenograft efficacy study; type: in vivo, mouse; details: Alpelisib 50 mg/kg QD, Day 28
# [11] = system: pAKT (S473) in panel of human tumor cell lines harboring PI3Kα kinase-domain mutations and SKBR3; experiment: pAKT (S473) HTRF, human tumor cell line panel; type: cell-based; details: SK-BR-3, 1 hour treatment, read-out: pAKT IC50 values across the panel of cell lines
# Description: (§1) A 384-well phospho-AKT (S473) HTRF (Homogenous Time-Resolve Fluorescence; PerkinElmer, #64AKSPEH) assay was used for target engagement. Each well was seeded with cell numbers indicated in Supplementary Table S3 in a volume of 12.5 μL in complete, phenol red-free media and then treated for 1 hour at 37°C with 5% CO2 before reading on a PHERAstar plate reader.
# [12] = system: pAKT (S473) in SKBR3 cells; experiment: pAKT (S473) HTRF; type: cell-based; details: Homo sapiens, SK-BR-3; SKBR3, WT PI3Kα; 1 hour; read-out: pAKT HTRF GMean IC50 (95% CI)
# Description: as §1
# [13] = system: pAKT (S473) in DETROIT562 cells; experiment: pAKT (S473) HTRF; type: cell-based; details: Homo sapiens, Detroit 562; DETROIT562, H1047R; 1 hour; read-out: pAKT HTRF GMean IC50 (95% CI)
# Description: as §1
# [14] = system: pAKT (S473) in NCIH1048 cells; experiment: pAKT (S473) HTRF; type: cell-based; details: Homo sapiens, NCI-H1048; NCIH1048, H1047R + K111R; 1 hour; read-out: pAKT HTRF GMean IC50 (95% CI)
# Description: as §1
# [15] = system: pAKT (S473) in T47D cells; experiment: pAKT (S473) HTRF; type: cell-based; details: Homo sapiens, 1 h, read-out: pAKT HTRF GMean IC50 (95% CI)
# Description: as §1
# [16] = system: pAKT (S473) in CAL148 cells; experiment: pAKT (S473) HTRF; type: cell-based; details: Homo sapiens, CAL-148; CAL148, H1047R + D350N; 1 hour; read-out: pAKT HTRF GMean IC50 (95% CI)
# Description: as §1
# [17] = system: pAKT (S473) in OAW42 cells; experiment: pAKT (S473) HTRF; type: cell-based; details: Homo sapiens, OAW-42; OAW42, H1047L; 1 hour; read-out: pAKT HTRF GMean IC50 (95% CI)
# Description: as §1
# [18] = system: pAKT (S473) in CAL33 cells; experiment: pAKT (S473) HTRF; type: cell-based; details: Homo sapiens, CAL-33; CAL33, H1047R; 1 hour; read-out: pAKT HTRF GMean IC50 (95% CI)
# Description: as §1
# [19] = system: pAKT (S473) in EFM19 cells; experiment: pAKT (S473) HTRF; type: cell-based; details: Homo sapiens, EFM-19; EFM19, H1047L; 1 hour; read-out: pAKT HTRF GMean IC50 (95% CI)
# Description: as §1
# [20] = system: pAKT (S473) in GP2D cells; experiment: pAKT (S473) HTRF; type: cell-based; details: Homo sapiens, H1047L, 1 hour, read-out: pAKT HTRF GMean IC50 (95% CI)
# Description: as §1
# [21] = system: pAKT (S473) in HCC1954 cells; experiment: pAKT (S473) HTRF; type: cell-based; details: Homo sapiens; HCC1954, H1047R; 1 hour; read-out: pAKT HTRF GMean IC50 (95% CI)
# Description: as §1
# [22] = system: pAKT (S473) in BT20 cells; experiment: pAKT (S473) HTRF; type: cell-based; details: Homo sapiens, BT-20; BT20, H1047R + P539R; 1 hour; read-out: pAKT HTRF GMean IC50 (95% CI)
# Description: as §1
# DETROIT562 cells = experiment: Cell viability CellTiter-Glo; type: cell-based; details: Homo sapiens, Detroit 562; DETROIT562, H1047R; 72 hours; read-out: CTGlo GMean GI50 (95% CI)
# Description: (§2) Cell viability was measured using CellTiter-Glo (Promega, #G9243). Indicated cell lines were seeded according to Supplementary Table S3 in 50 μL of media in 384-well plates, with 72 hours of treatment at 37°C with 5% CO2.
# CAL33 cells = experiment: Cell viability CellTiter-Glo; type: cell-based; details: Homo sapiens, CAL-33; CAL33, H1047R; 72 hours; read-out: CTGlo GMean GI50 (95% CI)
# Description: as §2
# [23] = system: GP2d colon cancer xenograft; experiment: GP2d xenograft efficacy study; type: in vivo, mouse
# [24] = STX-478 100 mg/kg q.d., alpelisib 50 mg/kg q.d.
structure (smiles),measurement,setting,value
Cc1nc(NC(=O)N2CCC[C@H]2C(N)=O)sc1-c1ccnc(C(C)(C)C(F)(F)F)c1 [alpelisib],glucose oxidation in skeletal muscle,[1],reductions in glucose oxidation in the skeletal muscle
same,progression-free survival time,[2],11.0 months
same,TGI (%),[3],100%
same,exposure of the maximum approved human dose (AUC),[4],"~33,000 ng*h/mL"
same,average pAKT suppression (treated/vehicle AUC1–12h),[5],66%
same,insulin resistance,[6],overt insulin resistance
same,Δ Insulin,[7]; Cal33 model,+1.07 ng/mL
same,Δ Insulin,[7]; Detroit 562 model,+2.33 ng/mL
same,Δ Insulin,[7]; GP2D model,+1.59 ng/mL
same,Δ Insulin,[7]; HCC1954 model,+2.38 ng/mL
same,Δ Insulin,[7]; NCI-H1048 model,+1.21 ng/mL
same,effects on body weight across studies,[7]; [24],No treatment-specific effects on body weight
same,Δ Insulin,[7]; T-47D model,+0.79 ng/mL
same,glucose uptake inhibition,[8]; 10 μmol/L,nearly complete inhibition
same,Emax,"[8]; Homo sapiens, Adipocyte, 10 nmol/L insulin, read-out: maximum effect (Emax) for glucose uptake inhibition",88%
same,tolerability of triple combination,[9],not tolerated in the clinic
same,TGI (%),[10],77%
same,IC50,[11],28 to 268 nM
same,IC50,[12],41 nM
same,IC50,[13],125 nM
same,IC50,[14],28 nM
same,IC50,[15],58 nM
same,IC50,[16],268 nM
same,IC50,[17],82 nM
same,IC50,[18],71 nM
same,IC50,[19],43 nM
same,IC50,[20],66 nM
same,IC50,[21],256 nM
same,IC50,[22],136 nM
same,GI50,DETROIT562 cells,436 nM
same,GI50,CAL33 cells,340 nM
same,TGI (%),"[23]; Alpelisib 50 mg/kg QD, Day 28",79%
same,tumor regressions (waterfall plot),[23]; [24],no regression
